Read-outs that look alike come from different tables or passages of the source.
Test: Plasma stability (37° C., pH 7.4), human
Assay type: in vitro ADME
Details: for half-life at 1 μM: both sexes, human, plasma; for % Remaining of Initial (n = 1), 0 min / % Remaining of Initial (n = 1), 15 min / % Remaining of Initial (n = 1), 30 min / % Remaining of Initial (n = 1), 60 min / % Remaining of Initial (n = 1), 120 min / % Remaining of Initial: human plasma; for % Remaining of Initial (n = 1), 0 min: pH 7.4, 0 min; for % Remaining of Initial (n = 1), 15 min: pH 7.4, 15 min; for % Remaining of Initial (n = 1), 30 min: pH 7.4, 30 min; for % Remaining of Initial (n = 1), 60 min: pH 7.4, 60 min; for % Remaining of Initial (n = 1), 120 min: pH 7.4, 120 min; for % Remaining of Initial: n = 1; for % Remaining of Initial (n = 1): Human plasma
Description: (§1) Studies were carried out in mixed-gender human plasma (Lot #GLP530-5), male Sprague-Dawley rat (Lot #RAT297944, RAT313140), male CD-1 mouse (Lot #MSE237700), and male Beagle dog (Lot #BGL87670, BGL82614), collected on sodium heparin. Plasma was adjusted to pH 7.4 prior to initiating the experiments. DMSO stocks were first prepared for the test articles. Aliquots of the DMSO solutions were dosed into 700 μL of plasma, which had been pre-warmed to 37° C., at a final test article concentration of 1 μM. […] Samples were stored at 4° C. until the end of the experiment. After the final time point was sampled, the plate was mixed and then centrifuged at 3,000 rpm for 10 minutes. Calibration standards were prepared in matched matrix. […] Analytical conditions are outlined in Appendix 8-1.
as §1, with “#AS1650-2),” for “#GLP530-5),”, “#RAT297944),” for “#RAT297944, RAT313140),”, “CD-I” for “CD-1”, “#BGL91384),” for “#BGL87670, BGL82614),”, “10-1.” for “8-1.”
Studies were carried out in mixed-gender human plasma (Lot #AS1650-2), male Sprague-Dawley rat (Lot #RAT297944), male CD-1 mouse (Lot #MSE237700), and male Beagle dog (Lot #BGL91384), collected on sodium heparin. Plasma was adjusted to pH 7.4 prior to initiating the experiments. DMSO stocks were first prepared for test articles. […] Samples were stored at 4° C. until the end of experiment. After the final time point was sampled, the plate was mixed and then centrifuged at 3,000 rpm for 10 minutes. Calibration standards were prepared in matched matrix. […] Analytical conditions are outlined in Appendix 13-1.
Studies were carried out in mixed-gender human plasma (Lot #AS 1650-2), male Sprague-Dawley rat (Lot #RAT320835), male CD-1 mouse (Lot #MSE260693), and 6 male Beagle dog (Lot #BGL91384), on sodium heparin. Plasma was adjusted to pH 7.4 prior to initiating the experiments. DMSO stocks were first prepared for the test articles. Aliquots of the DMSO solutions were dosed into 700 μL of plasma, which had been pre-warmed to 37° C., at a final test article concentration of 1 μM. […] Samples were stored at 4° C. until the end of the experiment. After the final time point was sampled, the plate was mixed and then centrifuged at 3,000 rpm for 10 minutes. Calibration standards were prepared in matched matrix. […] Analytical conditions are outlined in Appendix 17-1.

[1] = pH 7.4, human plasma, test article 1 μM, 37° C., pH 7.4, read-out: Half-life
[2] = pH 7.4, human plasma, calculated value beyond duration of experiment, read-out: Half-life (min), calculated half-life in parentheses
[3] = pH 7.4, human plasma, read-out: Half-life

Row | half-life at 1 μM [1] | half-life at 1 μM [2] | % Remaining of Initial (n = 1), 0 min (test article 1 μM, 37° C.) | % Remaining of Initial (n = 1), 15 min (test article 1 μM, 37° C.) | % Remaining of Initial (n = 1), 30 min (test article 1 μM, 37° C.) | % Remaining of Initial (n = 1), 60 min (test article 1 μM, 37° C.) | % Remaining of Initial (n = 1), 120 min (test article 1 μM, 37° C.) | Compound | other results
1 | > 120 min | 135 min | 100% | 96% | 91% | 84% | 51% | CCCCCCCCCCCCCCCC(=O)NCCOC(=O)CCC [Compound I-2] | 
2 | > 120 min | 211 min | 100% | 109% | 84% | 65% | 77% | CCCCCCCCCCCCCCCC(=O)NCCOC(=O)CCC(=O)OCC(COC(=O)CCCCCCC)OC(=O)CCCCCCC (stereo not shown) [Compound I-3, PEA-Succinate-Glycerol-Di-Caprylic] | 
3 | > 120 min | 195 min | 100% | 110% | 81% | 82% | 69% | CC/C=C\C/C=C\C/C=C\C/C=C\C/C=C\CCCC(=O)OCCNC(=O)CCCCCCCCCCCCCCC [Compound I-5] | 
4 | > 120 min | 147 min | 100% | 79% | 102% | 74% | 53% | CCCCC/C=C\C/C=C\CCCCCCCC(=O)OCCNC(=O)CCCCCCCCCCCCCCC [Compound I-6] | 
5 | < 1 min |  | 100% | <1.0% | <1.0% | <1.0% | <1.0% | CCCCCCCCCCCCCCCC(=O)NCCOC(=O)CCC(=O)OC[C@H]1O[C@@](CO)(O[C@H]2O[C@H](CO)[C@@H](O)[C@H](O)[C@H]2O)[C@@H](O)[C@@H]1O [Compound I-7] | 
6 |  |  |  |  |  |  |  | CCCCCCCCCCCCCCCC(=O)NCCOC(=O)CCC(=O)OC(CO)CO [Compound I-8] | half-life at 1 μM [3]: < 1 min; % Remaining of Initial (0 min, 1 μM): 100%; % Remaining of Initial (15 min, 1 μM): <1.0%; % Remaining of Initial (30 min, 1 μM): <1.0%; % Remaining of Initial (60 min, 1 μM): <1.0%; % Remaining of Initial (120 min, 1 μM): <1.0%
7 | 3.8 min |  | 100% | 6.4% | 1.4% | <1.0% | <1.0% | CCCCCCCCCCCCCCCC(=O)NCCOC(=O)CCC(=O)OCC(O)CO (stereo not shown) [Compound I-9] | 
8 | 34 min |  | 100% | 67% | 47% | 34% | 10% | CCCCCCCCCCCCCCCC(=O)NCCOC(=O)CCC(=O)OCC(COC(=O)CCC)OC(=O)CCC (stereo not shown) [Compound I-11] | 
9 |  |  |  |  |  |  |  | CCCCC/C=C\C/C=C\CCCCCCCC(=O)OCC(COC(=O)CCC(=O)OCCNC(=O)CCCCCCCCCCCCCCC)OC(=O)CCCCCCC/C=C\C/C=C\CCCCC (stereo not shown) [Compound I-13] | % Remaining of Initial (n = 1) (0 min, 1 μM): 100%; % Remaining of Initial (n = 1) (15 min, 1 μM): 104%; % Remaining of Initial (n = 1) (30 min, 1 μM): 115%; % Remaining of Initial (n = 1) (60 min, 1 μM): 95%; % Remaining of Initial (n = 1) (120 min, 1 μM): 40%; half-life at 1 μM (pH 7.4, Human plasma, 1 μM, read-out: Half-life): 120 min
10 |  |  |  |  |  |  |  | CCCCCCCCCCCCCCCC(=O)NCCOC(=O)CCC(=O)OC(COC(=O)CCC)COC(=O)CCC [Compound I-16] | half-life at 1 μM [3]: 31 min; % Remaining of Initial (0 min, 1 μM): 100%; % Remaining of Initial (15 min, 1 μM): 78%; % Remaining of Initial (30 min, 1 μM): 51%; % Remaining of Initial (60 min, 1 μM): 24%; % Remaining of Initial (120 min, 1 μM): 5.8%

Source: US11547681B2, “N-acylethanolamide derivatives and uses thereof” (ELIEM THERAPEUTICS, INC., priority 2016, dated 2023)
